“Also recorded” adds a separate entry of the source.
How the values were obtained:
M. luteus MS2 = assay: Pulldown binding assay, Langmuir isotherm fit, M. luteus; set-up: species or system Micrococcus luteus; conditions: for Langmuir Affinity (Ka): association constant from Langmuir isotherm fit; for Monolayer Concentration (N): maximum surface concentration from Langmuir fit
Source text: (§1) To investigate whether the changes in the observed level of binding were due to changes in the affinities or avidities of the refined peptides for cell surfaces, binding curves were generated for selected peptides and fit to the Langmuir isotherm (where possible), the simplest model describing binding to surfaces (peptides showing either complex or nonspecific binding isotherms were excluded from this analysis).
(§2) Measurements were taken of the absorbance of the labeled peptide at 488 nm (the peak absorbance of the fluorescein label) before and after exposure to the cells. The amount of peptide bound was calculated by comparing the ratio of the final (Af) and initial (Ai) absorbances to the initial concentration (C0)[Cbound=C0(1−(Af/Ai))]. Bacterial surface area per sample was calculated using a stage micrometer to determine the average cell diameter for each species (1.0+/−0.1 μm for S. aureus AM1, 2.7+/−0.1 μm for M. luteus MS2), treating individual cells as discrete spheres. Average cell concentration per unit OD600 was calculated using a hemocytometer.
(§3) Plots were then generated of the amount of peptide bound per m^2 of bacterial surface area vs. the concentration of unbound peptide at equilibrium. Where possible, the resulting isotherms were fit to the Langmuir isotherm (P/A=(KaNCeq)/(1+KaCeq), where P/A represents the molar amount of peptide bound per unit of bacterial surface area, Ka is the association constant of the peptide with the bacterial surface (L/Mol), N is the maximum surface concentration (mol/m^2), and Ceq is the molar concentration of unbound peptide at equilibrium) (Calis et al. (1995) Pharm Res 12(7): 1072-1076). Data plots and curvefits were obtained using Kaleidagraph (Synergy Software).

[1] = tested on: immobilized S. aureus cells; assay: Fluorescence microscopy binding of labeled peptides to immobilized bacteria, S. aureus; set-up: species or system Staphylococcus aureus; conditions: for Binding to S. aureus (fluorescent staining): 25 μM fluorescein-labeled peptide, 10 minutes, immobilized cells
Method: (§4) Peptide samples were prepared at a concentration of 25 μM for screening against a variety of organisms by exposing immobilized bacteria to labeled peptides. For bacterial cell binding assays, cells were grown overnight, washed, and immobilized in a polylysine-coated 96-well plate. Fluorescein-labeled peptide samples were applied to immobilized bacteria, incubated for 10 minutes and washed extensively to remove unbound peptide. Samples were visualized by fluorescence microscopy. For each peptide, both brightfield and fluorescence images were collected, and camera and microscope settings were not altered between images. The locations of cells and background regions were determined using the brightfield images; those regions were then selected in the fluorescence images for quantitation of pixel values for determination of relative fluorescence intensities (represented as bacterial fluorescence/background fluorescence) using the GNU Image Manipulation Program (The GIMP, see, e.g., www.gimp.org).
The following bacterial species and strains were used: Lactobacillus casei (strain), Escherichia coli (W3110), Enterococcus faecium (strain), Streptococcus mutans (UA140), Streptococcus mitis (ATCC 903), Streptococcus gordonii (NY101), Pseudomonas aeruginosa(strain K), Klebsiella pneumoniae (KAY2026), Myxococcus xanthus (Strains DK1622, wildtype, and difA, exopolysaccharide deficient^21), Micrococcus luteus (strain MS2, a community isolate), Staphylococcus epidermidis (strain), and Staphylococcus aureus(strains, and AM1, a methicillin/oxacillin-resistant community isolate).
For isolation of community-acquired S. aureus and M. luteus strains (strains MS2 and AM1), swabs were collected from the nostrils of several volunteers and streaked on Brain-Heart Infusion (BHI) agar and incubated at 37° C. overnight. Yellow colonies were isolated and typed (Microbial ID, Inc., Newark, Del.). Antibiotic resistance was assayed by plating on BHI in the presence of various antibiotics. Commercially available antibiotic susceptibility test disks were used to assay for oxacillin resistance (BD Biosciences), according to the manufacturer's instructions. Due to the difficulty of obtaining methicillin, oxacillin resistance was used as a proxy for methicillin resistance in isolated strains.^22
The peptides comprising these two refined libraries were synthesized, labeled, and screened against immobilized S. aureus cells exactly as for the original pilot library.
(§5) To examine the specificities of the peptides identified in this experiment, a diverse panel of various strains of bacteria was assembled, consisting of Lactobacillus casei, Escherichia coli, Enterococcus faecalis, Streptococcus mutans, Streptococcus mitis, Streptococcus gordonii, Pseudomonas aeruginosa, Klebsiella pneumoniae, Micrococcus luteus (strain MS2), Staphylococcus epidermidis, and two strains of Staphylococcus aureus: a methicillin/oxacillin-sensitive community isolate and our methicillin/oxacillin-resistant community isolate of (strain AM1). Peptides 3C and 4D from the original pilot library were screened for binding against these bacteria by fluorescence microscopy, and images were analyzed as before.

M. luteus = assay: Fluorescence microscopy binding of labeled peptides to immobilized bacteria, M. luteus; set-up: species or system Micrococcus luteus; conditions: 25 μM fluorescein-labeled peptide, immobilized cells
Method: as §4, with “www.gimp.org). […]” for “www.gimp.org).”
as §5

[2] = tested on: diverse panel of various strains of bacteria; assay: Specificity screen by fluorescence microscopy against a bacterial panel; format: binding; conditions: bacteria other than S. aureus and M. luteus
Method: as §4, with “www.gimp.org). […]” for “www.gimp.org).”
as §5

[3] = tested on: Candida albicans cells (strain 4741); assay: Pilot library binding to Candida albicans cells; conditions: fluorescence image
Method: as §4
(§6) The use of this technology is not limited to bacterial surfaces.

[4] = tested on: Chinese Hamster Ovary (CHO) cells; assay: Pilot library binding to CHO cells; conditions: fluorescence image
Method: as §4, §6

S. aureus AM1 = assay: Pulldown binding assay, Langmuir isotherm fit, S. aureus; set-up: species or system Staphylococcus aureus; conditions: for Langmuir Affinity (Ka): association constant from Langmuir isotherm fit, fluorescein-labeled peptide 0-100 μM; for Monolayer Concentration (N): maximum surface concentration from Langmuir fit
Source text: as §1, §2, §3

| Substance | Langmuir Affinity (Ka) (M. luteus MS2) [M^−1 × 10000] | Monolayer Concentration (N) (M. luteus MS2) [Mol/m^2 × 0.0001] | Binding to S. aureus (fluorescent staining) [1] | Binding to immobilized S. aureus relative to peptides of the original pilot library ([1]; refined libraries, fluorescence images) | Binding to M. luteus (fluorescent staining) (M. luteus) | Binding to the other bacteria of the panel [2] | Binding to C. albicans [3] | Binding to CHO cells [4] | Langmuir Affinity (Ka) (S. aureus AM1) [M^−1 × 10000] | Monolayer Concentration (N) (S. aureus AM1) [Mol/m^2 × 0.0001] | Binding to S. aureus (fluorescent staining) ([1]; listed as Pilot Library C3) | Binding to S. aureus (fluorescent staining) ([1]; listed as Pilot Library D4) |
| --- | --- | --- | --- | --- | --- | --- | --- | --- | --- | --- | --- | --- |
| In-plane refinement 1B: in-plane refined library peptide, SEQ ID NO:50 (IVSYVITQL; synthetic in-plane refinement library peptide B1) | 2.4 ± 0.8 | 0.11 ± 0.02 | strongest binding | enhanced binding | strongest binding | no significant binding |  |  |  |  |  |  |
| Pilot Library 3A: pilot library 9-mer, SEQ ID NO:11 (WWSYWWTQW; synthetic pilot library peptide A3) |  |  |  |  |  |  | binding | binding |  |  |  |  |
| Pilot Library 3C: pilot library 9-mer, SEQ ID NO:23; became A1 of the in-plane matrix (SEQ ID NO:46) (LISYILTQL; synthetic pilot library peptide C3) | 4 ± 1 | 0.12 ± 0.02 | Binding was clearly seen; also recorded: binds well |  | Binding was clearly seen; also recorded: binds well | significant levels of binding to several of the other bacteria tested; also recorded: significant binding to several strains |  |  | 5.6 ± 0.9 | 0.31 ± 0.2 | some of the brightest unique staining |  |
| Pilot Library 4D: pilot library 9-mer, SEQ ID NO:30; corner of the in-plane matrix (SEQ ID NO:61) (VAKDVAERV; synthetic pilot library peptide D4) | 5 ± 2 | 0.16 ± 0.02 | Binding was clearly seen |  | Binding was clearly seen | significant levels of binding to several of the other bacteria tested; also recorded: significant binding to several strains |  |  | 5 ± 3 | 0.12 ± 0.3 |  | some of the brightest unique staining |
